Reference: the CheMixHub ionic liquid set
± gives the uncertainty stated by the source.

Test: xn = mol fraction of the nth substance listed

O=C(O)CC(O)(CC(=O)O)C(=O)O + C[N+](C)(C)Cc1ccccc1.[Cl-]
101 kPa, x2 = 0.5
Details	electrical conductivity [S/m]	viscosity [mPa·s]
293.15 K	3.3e-05 ± 1e-06	–
298.09 K	3.9e-05 ± 1e-06	–
303.11 K	0.000162 ± 1e-06	–
308.2 K	0.000519 ± 1e-06	–
312.91 K	–	237000 ± 35000
313.21 K	0.00111 ± 1e-06	–
318.06 K	0.001906 ± 1e-06	–
327.86 K	–	52100 ± 6400
328.14 K	0.005576 ± 1e-06	–
333.12 K	0.009475 ± 1e-06	–

C=C[n+]1ccn(CCCC)c1.NCCCC[C@H](N)C(=O)[O-] + O
101.3 kPa
Details	electrical conductivity [S/m]	viscosity [mPa·s]
293.15 K, x1 = 0.3	–	8.51 ± 0.21
293.15 K, x1 = 0.5	–	90.4 ± 5.5
293.15 K, x1 = 0.9	–	1909 ± 710
293.15 K, x1 = 1	–	10700
303.15 K, x1 = 0.5	2.81 ± 0.11	69.3 ± 2.4
303.15 K, x1 = 0.9	1.13 ± 0.067	1664 ± 590
303.15 K, x1 = 1	0.133 ± 0.002	6900
308.15 K, x1 = 0.1	2.16 ± 0.042	–
313.15 K, x1 = 0.3	2.99 ± 0.091	4.43 ± 0.11
313.15 K, x1 = 0.5	3.31 ± 0.075	51.34 ± 0.35
323.15 K, x1 = 0.5	3.88 ± 0.057	40.64 ± 0.98
333.15 K, x1 = 0.9	–	750 ± 210
343.15 K, x1 = 0.5	–	36.74 ± 0.88
343.15 K, x1 = 0.9	–	223 ± 34
353.15 K, x1 = 0.1	–	1.39 ± 0.05
353.15 K, x1 = 0.3	–	2.03 ± 0.06

CCCCCCCCCCCC[n+]1ccn(C)c1.[Cl-] + O
298.15 K, 100 kPa, frequency 0.001 MHz
Details	electrical conductivity [S/m]
x1 = 7.207e-05	0.035 ± 0.016
x1 = 9.009e-05	0.043 ± 0.017
x1 = 0.0001261	0.059 ± 0.017
x1 = 0.0001802	0.085 ± 0.017
x1 = 0.0002162	0.102 ± 0.016
x1 = 0.0002882	0.129 ± 0.011
x1 = 0.0003242	0.137 ± 0.0083
x1 = 0.0004143	0.155 ± 0.0076
x1 = 0.0004503	0.163 ± 0.0074
x1 = 0.0004863	0.17 ± 0.0077
x1 = 0.0005223	0.177 ± 0.0069

CCCCCCCCCC[N+](C)(C)C.[Br-] + O
298.15 K, 101 kPa
Details	viscosity [mPa·s]
x1 = 9.063e-05	0.9026
x1 = 0.0001809	0.9052
x1 = 0.0002674	0.9071
x1 = 0.0003644	0.9089
x1 = 0.0004939	0.9162
x1 = 0.000699	0.9255
x1 = 0.0009049	0.9331
x1 = 0.00108	0.939
x1 = 0.001236	0.9459
x1 = 0.001415	0.9542
x1 = 0.001504	0.9589
x1 = 0.001656	0.9675
x1 = 0.001835	0.9775

CCCCCCCCCC[n+]1ccn(C)c1.O=S(=O)([N-]S(=O)(=O)C(F)(F)C(F)(F)F)C(F)(F)C(F)(F)F + O
Details	electrical conductivity [S/m]
295.15 K, 101 kPa, x2 = 0.14	0.11 ± 0.02

CCCCCCCCCC[n+]1ccn(C)c1.[Cl-] + O
298.15 K, frequency 5e-05 MHz
Details	electrical conductivity [S/m]
100 kPa, x1 = 0.0002846	0.126 ± 0.069
100 kPa, x1 = 0.0003693	0.163 ± 0.07
100 kPa, x1 = 0.0004125	0.177 ± 0.072
100 kPa, x1 = 0.0004683	0.205 ± 0.071
100 kPa, x1 = 0.0005331	0.235 ± 0.069
100 kPa, x1 = 0.0005997	0.262 ± 0.071
100 kPa, x1 = 0.0006609	0.294 ± 0.068
100 kPa, x1 = 0.0007347	0.32 ± 0.067
100 kPa, x1 = 0.0007922	0.347 ± 0.067
100 kPa, x1 = 0.0008678	0.375 ± 0.059
100 kPa, x1 = 0.000929	0.4 ± 0.053
100 kPa, x1 = 0.0009883	0.424 ± 0.051
100 kPa, x1 = 0.001073	0.44 ± 0.042
100 kPa, x1 = 0.001143	0.446 ± 0.035
100 kPa, x1 = 0.001186	0.45 ± 0.035
100 kPa, x1 = 0.001274	0.458 ± 0.033
100 kPa, x1 = 0.001346	0.467 ± 0.034
100 kPa, x1 = 0.001387	0.471 ± 0.033
100 kPa, x1 = 0.001452	0.479 ± 0.034
100 kPa, x1 = 0.001524	0.489 ± 0.035
100 kPa, x1 = 0.001603	0.493 ± 0.033
100 kPa, x1 = 0.001637	0.497 ± 0.033
101.3 kPa, x1 = 0.04436	4.7 ± 0.2

298.15 K, 101.3 kPa
Details	electrical conductivity [S/m]
x1 = 6.46e-06	0.00385 ± 4e-05
x1 = 9.55e-06	0.00548 ± 6e-05
x1 = 1.262e-05	0.00708 ± 7e-05
x1 = 1.582e-05	0.00872 ± 9e-05
x1 = 1.894e-05	0.0103 ± 0.0001
x1 = 2.2e-05	0.0118 ± 0.00012
x1 = 2.507e-05	0.01334 ± 0.00013
x1 = 2.8e-05	0.0148 ± 0.00015
x1 = 3.092e-05	0.0162 ± 0.00016
x1 = 3.384e-05	0.0176 ± 0.00018

CCCCCCCCn1cc[n+](C)c1.N[C@@H](CCC(=O)O)C(=O)[O-] + O
298.15 K, 100 kPa
Details	electrical conductivity [S/m]
x1 = 0.001637	0.28 ± 0.005
x1 = 0.002301	0.358 ± 0.0056
x1 = 0.002857	0.426 ± 0.0062
x1 = 0.003573	0.518 ± 0.0069
x1 = 0.004181	0.593 ± 0.0069
x1 = 0.004913	0.651 ± 0.007
x1 = 0.005822	0.708 ± 0.0074
x1 = 0.006748	0.759 ± 0.0078
x1 = 0.008079	0.835 ± 0.0086
x1 = 0.008965	0.89 ± 0.009
x1 = 0.01029	0.928 ± 0.0093
x1 = 0.01145	0.926 ± 0.0093

CCCC[N+]1(C)CCCC1.O=S(=O)([O-])C(F)(F)F + O
100 kPa
Details	electrical conductivity [S/m]	viscosity [mPa·s]
288.15 K, x2 = 0.0597	0.147 ± 0.003	241.7 ± 6.9
288.15 K, x2 = 0.3197	0.297 ± 0.006	98.4 ± 2.2
288.15 K, x2 = 0.3766	0.344 ± 0.007	81.5 ± 1.7
288.15 K, x2 = 0.7673	1.04 ± 0.021	18.66 ± 0.38
293.15 K, x2 = 0.3197	0.368 ± 0.007	76.9 ± 1.6
293.15 K, x2 = 0.8612	1.72 ± 0.034	8.54 ± 0.17
298.15 K, x2 = 0.0597	0.238 ± 0.005	138.8 ± 3.4
298.15 K, x2 = 0.3766	0.521 ± 0.01	51.2 ± 1
298.15 K, x2 = 0.6794	1.15 ± 0.023	18.33 ± 0.37
298.15 K, x2 = 0.7673	1.51 ± 0.03	12.54 ± 0.26
298.15 K, x2 = 0.95	2.4 ± 0.048	2.88 ± 0.06
303.15 K, x2 = 0.3766	0.623 ± 0.013	41.65 ± 0.85
303.15 K, x2 = 0.95	2.77 ± 0.055	2.49 ± 0.05
308.15 K, x2 = 0.1203	0.415 ± 0.008	72.5 ± 1.5
308.15 K, x2 = 0.3766	0.736 ± 0.015	34.31 ± 0.7
313.15 K, x2 = 0.1956	0.581 ± 0.012	47.98 ± 0.99
313.15 K, x2 = 0.5819	1.42 ± 0.028	15.25 ± 0.31
318.15 K, x2 = 0.1203	0.586 ± 0.012	48.5 ± 1
318.15 K, x2 = 0.3197	0.89 ± 0.018	28.23 ± 0.58
323.15 K, x2 = 0.0597	0.612 ± 0.012	46.94 ± 0.98
323.15 K, x2 = 0.1956	0.795 ± 0.016	33.42 ± 0.69
323.15 K, x2 = 0.5819	1.87 ± 0.037	11.25 ± 0.23
323.15 K, x2 = 0.6794	2.43 ± 0.049	8.12 ± 0.17
323.15 K, x2 = 0.95	4.45 ± 0.089	1.52 ± 0.03
328.15 K, x2 = 0.3766	1.31 ± 0.026	17.72 ± 0.36
333.15 K, x2 = 0.5819	2.41 ± 0.048	8.59 ± 0.18
